Assay results from US20250270213A1, “PI3Ka INHIBITORS” (Synnovation Therapeutics, Inc., priority 2022, published 2025).

What was measured:
Type in all cases: cell-based
SKBR3 (PIK3CA WT) cells = experiment: pS473 AKT assay, SKBR3 cells; settings: Homo sapiens, SK-BR-3, pSer473 AKT, complete medium with 10% fetal bovine serum, 2 h treatment, read-out: SKBR3_IC50
Method: (§1) Example A. pS473 AKT Assay Protocol
(§2) SKBR3 (PIK3CA WT), MCF7 (PIK3CA E545K), and T47D (PIK3CA H1047R) cells were cultured using 10-cm petri dishes with recommended medium plus 10% fetal bovine serum. One day before the assay, cells were seeded in 96-well plates at a final density of 10,000 cells per well. After overnight incubation in complete medium, cells were treated with different concentrations of PI3Kα inhibitors for 2 h. Cells were then fixed using 4% paraformaldehyde at room temperature for 20 min. Aspirate 4% paraformaldehyde, and wash cells using 1× regular phosphate buffered saline 3 times, 5 min each. Aspirate any residual phosphate buffered saline and block cells using 10% goat serum containing 1% bovine serum albumin and 0.3% Triton X-100 at room temperature for 1 h. Without any additional washing, primary antibodies (rabbit anti-pSer473 AKT) were diluted using blocking buffer and added at a final volume of 50 microliter per well. Keep assay plates with primary antibodies overnight at 4° C. Wash cells using 1× regular phosphate buffered saline 3 times, 5 min each. After the final wash, incubate cells with horseradish peroxidase-conjugated secondary antibodies (goat Anti-rabbit IgG) diluted using the same blocking buffer at room temperature for 1 h. Wash cells thoroughly using 1× regular phosphate buffered saline 3 times, 5 min each. Aspirate any residual phosphate buffered saline. Add Super-Signal ELISA Pico Chemiluminescent Substrate at a final volume of 100 microliter per well. Read plates on i3x Multi-Mode Microplate Reader and calculate IC50 values using GraphPad Prism software.

[1] = test system: MCF7 (PIK3CA E545K) cells; experiment: pS473 AKT assay, MCF7 cells; settings: Homo sapiens, pSer473 AKT, complete medium with 10% fetal bovine serum, 2 h treatment, read-out: MCF7_IC50
Method: as §1, §2

[2] = test system: T47D (PIK3CA H1047R) cells; experiment: pS473 AKT assay, T47D cells; settings: Homo sapiens, pSer473 AKT, complete medium with 10% fetal bovine serum, 2 h treatment, read-out: T47D_IC50
Method: as §1, §2

Row | SMILES | IC50 (SKBR3 (PIK3CA WT) cells) | IC50 [1] | IC50 [2]
1 | Cc1cc(C(C)Nc2ccccc2C(=O)O)c2c(c1)c(=O)n(C)c1ccnn21 (stereo not drawn) [Compound I-1, 2-((1-(4,7-dimethyl-5-oxo-4,5-dihydropyrazolo[1,5-a]quinazolin-9-yl)ethyl)amino)benzoic acid] | > 30 µM | > 30 µM | 1 to 5 µM
2 | Cc1cc(C(C)Nc2ccccc2C(=O)O)c2c(c1)c(=O)n(C)c1c(-c3ccccc3)cnn21 (stereo not drawn) [Compound I-2, 2-((1-(4,7-dimethyl-5-oxo-3-phenyl-4,5-dihydropyrazolo[1,5-a]quinazolin-9-yl)ethyl)amino)benzoic acid] | > 30 µM | > 30 µM | 1 to 5 µM
3 | C=Cc1cnn2c3c(C(C)Nc4ccccc4C(=O)O)cc(C)cc3c(=O)n(C)c12 (stereo not drawn) [Compound I-3, 2-((1-(4,7-dimethyl-5-oxo-3-vinyl-4,5-dihydropyrazolo[1,5-a]quinazolin-9-yl)ethyl)amino)benzoic acid] | > 30 µM | > 30 µM | 1 to 5 µM
